{
  "source": "patent US20260232715A1",
  "about": "“TREATMENT OF PANCREATIC CANCER” (CAN-FITE BIOPHARMA LTD., priority 2023, published 2026)",
  "key": {"[1]": {"tested_on": "BxPC-3 cells", "experiment": "Presto Blue cell growth inhibition assay", "type": "cell-based, human", "experimental": "Cells (15×10^4/mL) were maintained in RPMI medium supplemented with 10% fetal bovine serum (FBS), […], 100 U/ml penicillin, and […] streptomycin solution at 37° C. in a 5% CO2 incubator. Cells were transferred to a freshly prepared medium twice weekly. For the tumor cell growth experiments, BxPC-3 cells (15×10^4/mL) were incubated in the culture medium with control, 5, 10, or 20 nM namodenoson in 96-well microtiter plates for 24 h at 37° C. in a 5% CO2 incubator, after which cell growth inhibition was determined using the Presto Blue assay (Thermo Fisher Scientific, Waltham, MA, USA) used as per the manufacturer's instructions. Experiments under the same conditions with 20 nM namodenoson were also conducted with and without 20 nM of the A3AR antagonist MRS1523 (diluted to the final concentration in RPMI medium)."}, "[2]": {"tested_on": "BxPC-3 cells", "experiment": "Western blot analysis of regulatory protein expression", "type": "cell-based, human", "conditions": "20 nM namodenoson, 24 h, vs. control", "experimental": "Western blot analyses were performed using the same culture conditions as the Presto Blue experiments in 10 cm plates with 20 nM namodenoson or control. After incubation for 24 h at 37° C. in a 5% CO2 incubator, the cell samples were rinsed with ice-cold PBS and transferred to ice-cold RIPA buffer with 1× protease and phosphatase inhibitor cocktail for 20 min. Cell debris was removed using centrifugation at 4° C. for 10 min, at 7500×g. The supernatant was utilized for the Western blot analyses. Protein concentrations were determined using the NanoDrop assay (ThermoFisher Scientific, Waltham, MA, USA). Equal amounts of the sample (50 μg) were separated by SDS-PAGE, using […] (Schleicher & Schuell, Keene, NH, USA). Membranes were blocked with 1% bovine serum albumin and incubated with the relevant primary antibody (dilution 1:1000) for 24 h at 4° C. Blots were then washed and incubated with the secondary antibody for 1 h at room temperature. Bands were recorded using BCIP/NBT color development kit (Promega, Madison, WI, USA)."}, "[3]": {"tested_on": "BxPC-3 cells", "experiment": "3H-thymidine incorporation assay (cell growth)", "type": "cell-based", "conditions": "Homo sapiens, 48 h, read-out: percentage of growth inhibition of BxPC-3 cells", "experimental": "Cells (15×10^4/mL) were maintained in RPMI medium supplemented with 10% fetal bovine serum (FBS), […], 100 U/ml penicillin, and […] streptomycin solution at 37° C. in a 5% CO2 incubator. Cells were transferred to a freshly prepared medium twice weekly. 3H-thymidine incorporation assay was used to evaluate cell growth. BxPC-3 cells (5,000 cells/well) were incubated (37° C.) with CF102 (namodenoson) in different concentrations: 0.01 nM, 0.1 nM and 1 nM in a 96-well plate for 48 h. Each well was pulsed with 1 μCi 3H-thymidine for the last 24 h. The cells were harvested, and the 3H-thymidine uptake was determined in an LKB liquid scintillation counter (LKB)."}, "[4]": {"tested_on": "BxPC-3 cells", "experiment": "BxPC-3 subcutaneous tumor growth in nude mice", "type": "in vivo, nude Balb/C mice", "conditions": "10 μg/kg twice daily for 35 days (Day 22 to Day 57), by Day 57 from tumor inoculation", "experimental": "Male nude Balb/C mice (Harlan Laboratories, Jerusalem, Israel), aged 2 months (mean weight, 25 g), received a subcutaneous flank injection of BxPC-3 cells (2.5×10^6). The mice were maintained on a standardized pelleted diet and supplied with tap water. […] Tumor width (W) and length (L) were measured twice weekly with a caliber, and tumor size was calculated (W^2×L/2)."}},
  "data": [
    {"compound": "CCCOC(=O)c1c(-c2ccccc2)nc(CC)c(C(=O)SCC)c1CCC", "note": "[MRS1523, reference compound]", "values": [
      {"measurement": "cell growth, % of the control", "setting": "[1]; 20 nM MRS1523 alone, 24 h", "value": "100.8%+11.1 % of the control"}
    ]},
    {"compound": "CNC(=O)[C@H]1O[C@@H](n2cnc3c(NCc4cccc(I)c4)nc(Cl)nc32)[C@H](O)[C@@H]1O", "note": "[namodenoson, 2-chloro-N^6-(3-iodobenzyl)-adenosine-5′-N-methyl-uronamide]", "values": [
      {"measurement": "A3AR protein expression level", "setting": "[2]", "value": "decrease"},
      {"measurement": "Bad expression", "setting": "[2]", "value": "upregulated"},
      {"measurement": "Bax expression", "setting": "[2]", "value": "upregulated"},
      {"measurement": "GSK-3β expression", "setting": "[2]", "value": "upregulation"},
      {"measurement": "NF-κB expression", "setting": "[2]", "value": "downregulated"},
      {"measurement": "PI3K expression", "setting": "[2]", "value": "downregulated"},
      {"measurement": "cyclin D1 expression level", "setting": "[2]", "value": "decrease"},
      {"measurement": "p-Akt expression", "setting": "[2]", "value": "downregulated"},
      {"measurement": "pERK 1/2 expression level", "setting": "[2]", "value": "decrease"},
      {"measurement": "pMEK 1/2 expression level", "setting": "[2]", "value": "decrease"},
      {"measurement": "pRaf expression level", "setting": "[2]", "value": "decrease"},
      {"measurement": "β-catenin expression level", "setting": "[2]", "value": "decrease"},
      {"measurement": "inhibition at 10 pM", "setting": "[3]; 0.01 nM namodenoson", "value": 27.9, "unit": "%"},
      {"measurement": "inhibition at 0.0001 µM", "setting": "[3]; 0.1 nM namodenoson", "value": 53.7, "unit": "%"},
      {"measurement": "inhibition at 0.001 µM", "setting": "[3]; 1 nM namodenoson", "value": 67.4, "unit": "%"},
      {"measurement": "cell growth, % of the control", "setting": "[1]; 20 nM namodenoson alone, 24 h", "value": "45.0%+4.2 % of the control"},
      {"measurement": "cell growth, % of the control", "setting": "[1]; 20 nM namodenoson plus 20 nM MRS1523, 24 h", "value": "81.1%+6.3 % of the control"},
      {"measurement": "inhibition at 0.005 µM", "setting": "[1]; Homo sapiens, BXPC-3, 5 nM, 24 h, mean±SE", "value": 49.7, "unit": "%"},
      {"measurement": "inhibition at 0.01 µM", "setting": "[1]; Homo sapiens, BXPC-3, 10 nM, 24 h, mean±SE", "value": 66.3, "unit": "%"},
      {"measurement": "inhibition at 0.02 µM", "setting": "[1]; Homo sapiens, BXPC-3, 20 nM, 24 h, mean±SE", "value": 82.7, "unit": "%"},
      {"measurement": "inhibition of tumor growth vs. control", "setting": "[4]", "value": 67.7, "unit": "%+15.2"}
    ]}
  ]
}
